How the values were obtained:
Format in all cases: in vivo, C57BL/6 mice
OVA-expressing B16 cells = assay: Metastatic potential of melanoma, lung melanoma spots after intravenous B16 (Example 1); conditions: B16 melanoma cells given intravenously after immunisation; FIG. 4
Protocol: C57BLJ6 mice were vaccinated as above with OVA with or without TPSC2a and challenged four days later with 500,000 OVA-expressing B16 cells given by intravenous injection. On day 19, mice were euthanized and spleens and lungs were harvested. The lungs were analysed by counting melanoma spots as a measure for metastasis. Spleen cells were analysed by flow cytometry for CD8 T-cell activation as described above.

[1] = tested on: SIINFEKL-specific CD8 T cells; assay: Intradermal PCI immunisation, antigen-specific CD8 T cells in blood by pentamer flow cytometry (Example 1); conditions: 10 μg OVA with or without 100 μg TPCS2a i.d., skin illuminated 18 hours later; FIG. 1A
Protocol: C57BL/6 mice were immunised at 6-10 weeks of age. One day prior to immunisation, 10,000 OT-I spleen and lymph node cells were administered by intravenous injection into the recipient C57BL/6 mice (see Example 2). The next day, the fur was shaven off the abdominal region and 100 μl of the vaccine preparations were injected intradermally. The doses of OVA and TPCS2a were 10 μg and 100 μg, respectively. After 18 hours, the anaesthetised mice were placed on the light source for six minutes illumination (4.86 J/cm2) for activation of TPCS2a.
The frequency of antigen-specific CD8 T cells was monitored in blood and spleen by flow cytometry using H-2K^b/SIINFEKL Pro5 pentamer (Proimmune, Oxford, UK). Cell-surface expression of CD4, CD8, and CD44 and intracellular production of IFN-γ was analysed by flow cytometry after Fc-receptor blocking with anti-CD16/32. The intracellular staining was after overnight incubation at 37° C. with 0.1 μg SIINFEKL. Brefeldin A (2.5 μg/ml) was added during the last 4 hours. The cells were fixed with 4% formaldehyde for 10 minutes, permeabilised in 0.1% NP40 for 3 minutes, and stained with anti-IFN-γ for 35 minutes. […] Acquisition was performed on FACSCanto (BD Biosciences, San Jose, USA) and data analysed with FlowJo 8.5.2 (Tree Star, Inc., Ashland, Oreg.). […] Supernatants were collected after 24-72 hours and analysed using cytokine ELISA kits (eBioscience).

[2] = tested on: OVA-expressing B16 melanoma cells; assay: Prophylactic vaccination against intradermal melanoma challenge (Example 1); conditions: B16 cells intradermally five days after immunisation; FIG. 1D
Protocol: C57BL/6 mice were immunised at 6-10 weeks of age. […] The next day, the fur was shaven off the abdominal region and 100 μl of the vaccine preparations were injected intradermally. The doses of OVA and TPCS2a were 10 μg and 100 μg, respectively.
If not otherwise stated, C57BL/6 mice were vaccinated as described above 4-5 days prior to, or 7-8 days after, the tumour challenge with 500,000 OVA-expressing B16-melanoma cells injected intradermally into one of the mouse flanks; 10,000 OT-I cells were transferred intravenously to the recipient one day before prophylactic vaccination, or one day before B16 injection in the therapeutic vaccination model. […] The tumour growth was monitored by measuring the size of the neoplasm with a calliper.

[3] = tested on: OVA-expressing B16-melanoma tumours; assay: Histological analysis of tumour and tumour infiltrates (Example 1); conditions: immune histochemistry; FIG. 3A
Protocol: C57BLJ6 mice received 500,000 OVA-expressing B16-melanoma cells intradermally as described above. Six days later, the mice were vaccinated with 10 μg OVA ±100 μg TPCS2a as described above. On day 7, the mice were treated with 4.86 J/cm2 light. On day 15, the mice were euthanized and the tumours excised and cut in two pieces, one snap frozen in liquid nitrogen and one fixed in formalin (2 days) and 60% ethanol before embedded in paraffin. The frozen tissues were sectioned and stained with anti-mouse CD8, CD4, and caspase-3 antibodies for immune histochemistry. Paraffin sections were stained with haematoxylin and eosin.

OVA: Chicken ovalbumin protein, model antigen expressed by the transfected B16 melanoma cells
melanoma spots (lung metastases) on the lung, average (OVA-expressing B16 cells): approx. 50 | frequency of pentamer (H2K^d-SIINFEKL)-binding CD8 T cells in blood [1]: No or little so-called cross priming | mice that developed tumours [2]: Fifty | infiltration of CD8 T cells into the intradermal tumour [3]: no benefit compared to no treatment

Reference: patent US10973896B2, “Treatment or prevention of melanoma using photochemical internalization of a melanoma antigen” (PCI Biotech AS, priority 2014, dated 2021)
